Test results: a melting point compilation (Tetko et al.; mined from patent text by program, amines drawn as free bases though some values may be those of a salt)

Compared with `Nc1ncc(-c2cccc3ccc(Br)cc23)o1`, `O=c1cc(-c2ccc([N+](=O)[O-])cc2)oc2ncccc12` is higher in melting point: 189 to 190 °C for the first, 261 to 263 °C for the second.

Compared with `CON1CCC2(CC1)C(=O)C(Cl)(c1cc(C)c(C)cc1Cl)C(=O)N2C` (centres undefined), `CN1CCC(Oc2cc3c(cc2F)c(=O)c(C(=O)O)cn3C2CC2)CC1` is higher in melting point: 93 to 94 °C for the first, 265 to 269 °C for the second.

First: CS(=O)(=O)Nc1ccc(N)cn1
Second: CNC(=O)c1ccccc1I
The melting point of the first is higher: 199 to 202 °C for the first, 153 to 154 °C for the second.

First: Cc1ccc2c(c1)[C@H]1Cc3ccccc3[C@H]1N2C (relative stereo)
Second: CN(C)CCCSc1cccc2c1NC(=O)CC2c1ccccc1 (centres undefined)
The melting point of the first is lower: 54 °C for the first, 64 to 66 °C for the second.

First: COc1ccc2cc([C@H](C)C(=O)ON3C(=O)c4ccccc4C3=O)ccc2c1
Second: CCN(CC)C(=O)Nc1ccc(S(=O)(=O)n2c(=O)n(-c3ccccc3Cl)c3cc(Cl)ccc32)cc1
The melting point of the first is lower: 110 to 112 °C for the first, 222 °C for the second.

First: CCOP(=O)(/C=C/c1cn(-c2ccccc2)nc1OCc1ccc(OCc2nc(-c3ccc(CC(=O)O)cc3)oc2C)c(OC)c1)OCC
Second: CCOC(=O)c1c(CS(=O)(=O)c2nccn2C)nc2cc(OC)c(OC)cc2c1-c1ccc(OC)c(OC)c1
The melting point of the first is lower: 119 to 120 °C for the first, 183 to 184 °C for the second.

First: O=C(O)[C@H](Cc1cccc(OC(F)(F)C(F)F)c1)[C@@H](O)c1cccc(F)n1 (racemic)
Second: CCOC(=O)[C@H](Cc1cccc(OS(=O)(=O)C(F)(F)F)c1)NC(=O)C(F)(F)F
The melting point of the first is higher: 103 to 104 °C for the first, 38 to 39 °C for the second.

First: CC#CCOc1cc(C=O)ccc1OC(F)F
Second: CC#CCOc1cc(Oc2cccc(F)c2)ncn1
The melting point of the first is lower: 46 to 47 °C for the first, 60.1 °C for the second.

First: CCOC(=O)Cc1csc(NC(=O)C(N)Cc2cccs2)n1 (centres undefined)
Second: CCOc1ccc(O)c(CC(=O)OC)c1
The melting point of the first is higher: 98 to 102 °C for the first, 83 to 84 °C for the second.

Compared with `Cc1nc(-c2c(F)cccc2Cl)n[nH]1`, `Nc1ccn2nc(-c3cccc(F)c3)nc2c1` is lower in melting point: 232 to 233 °C for the first, 200 to 203 °C for the second.

Compared with `COc1ccc2c(c1)CCN1C[C@H]3CCCN(S(C)(=O)=O)[C@H]3C[C@@H]21`, `COc1ccc(CN2CCc3cc(O)ccc3C2)cc1OC` is lower in melting point: 165 to 166 °C for the first, 119 to 122 °C for the second.

Compared with `CC(=NO)c1nc(-c2cccnc2)[nH]c1C`, `Cn1cc(-c2nnn[nH]2)c(=O)c2ccccc21` is higher in melting point: 215 to 216 °C for the first, 306 °C for the second.

First: COC(=O)CCC(=O)Nc1cccc(Oc2nc3ccccc3s2)c1
Second: O=C(O)CCC(CSc1ccc2ccccc2c1)C(=O)O (centres undefined)
The melting point of the first is lower: 78 to 82 °C for the first, 140 to 142 °C for the second.

Compared with `C=C(c1ccc(C#N)cc1)c1cncs1`, `COC(=O)c1ccc(Cc2ccc(O)cc2)cn1` is higher in melting point: 71 to 73 °C for the first, 184 to 186 °C for the second.

First: C#CCCn1nnc2cc3c(=O)n(C(C)Cn4cnnn4)nnc3cc2c1=O (centres undefined)
Second: CCOC(=O)CN1C(=O)Nc2cccc(OC)c2C1C (centres undefined)
The melting point of the first is higher: 201 to 204 °C for the first, 150 to 151 °C for the second.

First: CCN1CC(C)=CC2=C1N1CN(OC)C=C1N=N2
Second: CCc1cccc(CC)c1NC(=O)c1c2n(c(C)cc1=O)CCCC2
The melting point of the first is higher: 202 to 203 °C for the first, 134 to 137 °C for the second.

First: CCCc1sc(N)c(C(=O)c2ccc(Cl)cc2)c1C
Second: CCCc1c(O)ccc2c1OC(C)(CCC(N)=O)CC2=O (centres undefined)
The melting point of the first is lower: 94 to 95 °C for the first, 108 to 115 °C for the second.

First: CC1CCC(NC(=O)NS(=O)(=O)c2ccc(CCNC(=O)N3CCCCC3=O)cc2)C1 (centres undefined)
Second: CC[C@@H](O)CC(=O)N[C@H]1CC[C@H](CCN2CCC(c3cccc4c3CCO4)CC2)CC1
The melting point of the first is lower: 166 to 168 °C for the first, 201 °C for the second.

First: CC(=O)SC(CC(=O)c1ccc(Sc2ccc(C)cc2)cc1)C(=O)O (centres undefined)
Second: CC(C)Nc1cccnc1N1CCN(C(=O)c2ccc(C(=O)NCCOCCO)cn2)CC1
The melting point of the first is higher: 127 to 129 °C for the first, 93 to 95 °C for the second.

First: CC(C)(C)c1cc(CCc2ccccc2NC(=O)NC(C)(C)c2ccc(Cl)c(Cl)c2)cc(C(C)(C)C)c1O
Second: CN(Cc1ccccc1)C(=O)Nc1cc(C(C)(C)C)on1
The melting point of the first is higher: 203 to 205 °C for the first, 107 to 108 °C for the second.

First: COc1cc2c(c3c1OC(C)(C)C3)C(c1cccc(Br)c1)=NCC2(C)C
Second: COc1cc(-c2ccc(Cl)s2)cc2oc(=O)c(C)c(C)c12
The melting point of the first is lower: 127 to 129 °C for the first, 152 to 154 °C for the second.

First: COC(=O)c1cc(N2CCCC2)c(Oc2ccccc2)c(S(N)(=O)=O)c1
Second: CC(CCl)=NNC1=Nc2ccc(Cl)cc2C(c2ccccc2)=NC1
The melting point of the first is lower: 191 °C for the first, 210 to 227 °C for the second.

First: O=[N+]([O-])c1cn2c(n1)O[C@@H](COc1ccc(N3CCC(Cc4ccc(OC(F)(F)F)cc4)CC3)cc1)C2
Second: CN1CCN(CCCOc2ccccc2Nc2nc(C#N)nc3c2ncn3C2CCCC2)CC1
The melting point of the first is higher: 160 to 164 °C for the first, 136 to 138 °C for the second.

First: O=C1C(=Cc2ccncc2)c2ccccc2N1c1ccccc1
Second: CCNC(=O)/C=C1\CCc2ccc(F)cc21
The melting point of the first is higher: 160 to 162 °C for the first, 125 to 127 °C for the second.

With `CCCN(SCNC(=O)ON=C(C)SC)P(=S)(OCC)OCC` the melting point was 68 to 69 °C.
